Test results: PMC8512147, “Multifunctional Small Molecules as Potential Anti-Alzheimer’s Disease Agents” (Molecules, 2021)
Read-outs that look alike come from different tables or passages of the source. Values belong to the compound of their own block, whether it stands above or below them.

Tests used:
[1] = Radical scavenging activity, DPPH method; type: biochemical; conditions: MeOH, 30 min, r.t., mean ± SD of 3 independent experiments
Source text: Commercial ferulic acid (FA) and all the newly synthesized compounds 1a–e were studied for their radical scavenging activity, following the protocol previously reported. The activity of each compound is expressed as EC50 and is related to its interaction with the free stable radical 2,2-diphenyl-1-picrylhydrazyl (DPPH•).
For the physicochemical and biological studies, analytical grade reagents and solvents were supplied by Sigma-Aldrich (St. Louis, MO, USA), Fluka (Buchs, Switzerland) and Acros (Geel, Belgium). They were used as received without any purification. The antioxidant activity assay was performed in a quartz cell of 1 cm path length with a Perkin-Elmer Lambda 35 UV–Vis spectrophotometer equipped with a temperature programmer PTP1+1 Peltier System (T = 25.0 ± 0.1 °C).
Compounds were evaluated for their radical scavenging activity by the Blois method using DPPH (2,2-diphenyl-1-picrylhydrazyl), a stable free-radical. It absorbs in methanol solution at 517–520 nm and it is a scavenger for other radicals converting itself in the reduced form DPPHH. The assay consists of preparing solutions of increasing concentration of each compound starting from a stock solution (2–3 × 10^−4 M), adding to them 2.5 mL DPPH (0.002% in MeOH, 50–100 µM) and the necessary volume of MeOH to reach the final volume 3.5 mL for each sample. The control sample was made up of DPPH and MeOH. Solutions were protected from light at r.t. for 30 min and then absorbance was measured at 517 nm with a Perkin Elmer Lambda 35 UV–Vis spectrophotometer, using methanolic solution as the blank in the other cell. All the studied compounds have good solubility in MeOH, so their solutions could be prepared. The assay was repeated three times for all compounds and the antioxidant activity, expressed as EC50, was calculated by Equation (1). %AA = ((ADPPH − Asample)/ADPPH) × 100,(1)

[2] = design: method as in doi:10.1039/C7NJ00661F, doi:10.1016/j.tca.2004.06.016, doi:10.1021/je101075q; conditions: aqueous medium and/or different ionic strength; cited from earlier work
[3] = Cu^2+ complexation, potentiometric / spectrophotometric titration; type: physicochemical
Source text: (§1) The chelating ability of FA and of selected compounds 1a and 1d was studied by using the same experimental techniques (potentiometry, UV–Vis spectrophotometry) and experimental medium used for the titration of the ligand alone (20% w/w DMSO/water).
(§2) Alterations in the deprotonation profiles of the ligand titration curves due to the presence of the metal ions are evident in Figure 2, since the curves for the M/L systems appear well below that of FA for a > −1 (M = Fe) or a > 0 (M = Cu). This evidence supports the formation of metal complexes with the deprotonated (L^−) and mono-protonated (HL) forms of the ligand, whose stability order (Fe > Cu) follows the expected trend. Equilibrium models obtained from the fitting analysis of the potentiometric curves (M = Fe, Cu) and the UV–Vis spectral data (M = Fe, Cu) are reported in Table 2.
(§3) Both compounds 1a and 1d have similar chelating capacities towards iron and copper, which are also analogous to those of FA.
(§4) As concerns the metal chelation studies, potassium hydrogen phthalate (C8H5KO4, p.a.) was acquired from BDH, whereas dimethylsulfoxide (DMSO, dried, p.a.) and potassium chloride (KCl, p.a.) were supplied by Sigma-Aldrich. Aqueous solutions of metal ions were prepared starting from 1000 ppm standards (Titrisol, Sigma-Aldrich), to obtain solutions FeCl3 0.018 M and CuCl2 0.015 M. The metal content of solutions was evaluated by atomic absorption. Iron stock solution was prepared with an excess of acid chloride to avoid hydrolysis and its concentration in HCl was determined by the usual standard-addition method using 0.1M HCl (Titrisol). The 0.1M HCl solution, used in calibration of the glass electrode and in spectrophotometric titrations, was prepared from a Titrisol ampoule. The titrant was prepared from carbonate free commercial concentrate (Titrisol, KOH 0.1 M ampoules). The KOH solution was standardized by titration with a solution of potassium hydrogen phthalate using Gran’s method and it was rejected when the percentage of carbonate was greater than 0.5% of the total amount of base. The potentiometric studies were performed with an automated potentiometric apparatus controlled by PASAT program and containing a Crison micropH 2002 millivoltmeter, a Crison microBu 2031 burette and a Haake thermostatic bath (T = 25.0 ± 0.1 °C). The spectrophotometric titrations were carried out with a Perkin-Elmer Lambda 35 spectrophotometer.
(§5) Both glass and Ag/AgCl reference electrodes were previously conditioned in different DMSO/H2O mixtures of increasing DMSO % concentration and the response of the glass electrode was evaluated by strong acid–strong base (HCl/KOH) calibrations with the determination of the Nernst parameters by Gran’s method. […] The spectrophotometric measurements were carried out in a 250–450 nm wavelength range at pH ca. 2.5–11.8. Under the stated experimental conditions, the pKw value (14.27) was determined and subsequently used in the computations. The stepwise protonation constants of the ligands, Ki = [HiL]/[Hi-1L][H], and the overall metal complex stability constants, β (MmHhLl) = [MmHhLl]/[M]^m[H]^h[L]^l, were calculated by fitting the pH-potentiometric and spectrophotometric data with, respectively, the Hyperquad 2008 [41] and Psequad programs. The metal hydrolysis model was determined under the defined experimental conditions (I = 0.1 M KCl, 20% w/w DMSO/H2O, T = 25.0 ± 0.1 °C) and the following values of stability constants were included in the fitting of experimental data towards the equilibrium models related to the Fe^3+/L and Cu^2+/L systems: log β (FeH-2) = −6.78, log β (FeH-3) = −10.78; log β (Cu2H-2) = −9.94. The species distribution curves were obtained with the Hyss program.

[4] = Fe^3+ complexation, potentiometric / spectrophotometric titration; type: physicochemical
Source text: as §1, §2, §3, §4, §5

Aβ1–42 peptide [5] = biological target: T1, Aβ1–42 peptide (Homo sapiens, UniProt P05067); assay: Inhibition of self-mediated Aβ1–42 aggregation, Thioflavin T fluorescence assay; type: biochemical; design: Amyloid-β peptide (1–42) was purchased from GeneCust; purchased GeneCust; conditions: read-out: Inhibition of Aβ1–42 Aggregation (%) Self-Aβ Aggr.
T1 sequence (P05067 672-713): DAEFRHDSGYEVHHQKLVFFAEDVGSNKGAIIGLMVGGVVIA
Experimental: (§6) The studied compounds (1a–e) were tested in vitro to evaluate their activity as inhibitors of Aβ1-42 peptide aggregation, through the Thioflavin T (ThT) fluorescence assay. This method is based on the strong ability of the dye ThT to bind β-amyloid fibrils and oligomers through ionic and hydrophobic interactions, while its interaction with β-amyloid monomers is extremely weak. The intercalation of compounds in the β-sheet structure of amyloid protein may prevent fibrils aggregation and ThT binding, and it is evaluated by fluorimetry. The fluorescence emission measurements were performed after overnight incubation of the self-mediated or Cu^2+-induced Aβ fibril aggregates with the studied compounds.
(§7) The inhibition of β-amyloid (Aβ) aggregation was studied through the Th-T fluorescence assay, which was performed using a Varian Cary Eclipse fluorimeter at the following wavelengths: excitation (446 nm) and emission (485 nm). Amyloid-β peptide (1–42) was purchased from GeneCust as lyophilized powder stored at −20 °C.
(§8) The method used is based on thioflavin T (ThT) fluorescence emission, which depends on the interaction of this dye with Aβ fibrils. The assay is performed with the Aβ1–42 peptide sample, which was previously prepared by solubilization of its lyophilized powder in 1,1,1,3,3,3–hexafluoro-2-propanol (HFIP), an organic solvent useful to solubilize and monomerize the β-sheets protein aggregates. After 24 h, the solution was divided into Eppendorf tubes kept in ice, and then, HFIP was left to evaporate overnight (T = 25 °C). The resultant films were stored in the freezer. […] Compounds were dissolved in MeOH (1 mg/mL) and diluted with phosphate buffer to reach a ligand stock solution of 480 μM. Two different types of experiments were prepared in a final volume of 60 μL: control ligand assays (Aβ1–42 aggregation in the absence of inhibitor) and ligand assays (effect of ligand on Aβ1–42 aggregation). For each experiment, a blank sample without Aβ1–42 was used to monitor the effect of the compounds in fluorescence. To study the inhibition of aggregation in the presence of Cu^2+, which is known to promote it, an intermediate stock solution of CuCl2 in phosphate buffer (240 µM) was prepared. Then, it was aliquoted to obtain a final concentration of 40 µM in the samples. All samples were incubated in a water bath for 24 h at 37 °C. Then, 180 µL of ThT (5 µM) in glycine-NaOH buffer (50 mM, pH = 8.5) is added to each solution and 200 µL of it is placed in a 96-well plate (BD Falcon) to be read with the fluorimeter. After 5 min of incubation with ThT, fluorescence was measured at 446 nm (ʎ excitation) and 485 nm (ʎ emission).

Aβ1–42 peptide [6] = biological target: T1, Aβ1–42 peptide; assay: Inhibition of Cu^2+-induced Aβ1–42 aggregation, Thioflavin T fluorescence assay; type: biochemical; design: Amyloid-β peptide (1–42) was purchased from GeneCust; purchased GeneCust; conditions: compounds 80 μM, with copper 40 μM; ThT fluorescence; mean of two independent measurements in duplicate; read-out: Inhibition of Aβ1–42 Aggregation (%) Cu-Induced Aβ Aggr.
Experimental: as §6, §7, §8

Aβ1–42 peptide [7] = biological target: T1, Aβ1–42 peptide; conditions: cited from earlier work
[8] = design: method as in PMID 25994066; conditions: DPPH method; read-out: Radical Scavenging Activity (EC50); cited from earlier work
[9] = T = 25.0 ± 0.1 °C, I = 0.1 M KCl, 20% w/w DMSO/water, pH-potentiometric (FA), UV–Vis (1a, 1d)
[10] = T = 25.0 ± 0.1 °C, I = 0.1 M KCl, 20% w/w DMSO/water, pH-potentiometric data
[11] = pH 7.4, CL/CM = 10, CM = 10^−6 M
[12] = compounds 80 μM, without copper, ThT fluorescence, mean of two independent measurements in duplicate

Structure (SMILES): COc1cc(/C=C/C(=O)O)ccc1O [FA, (E)-4-hydroxy-3-methoxy cinnamic acid, reference compound]
EC50 [1]: 36 ± 2 µM
log K1 previously reported [2]: 8.77–8.94
log K2 previously reported [2]: 4.46–4.56
log β (CumHhLl), species (1–12) [3, 9]: 1.90(8)
log β (CumHhLl), species (101) [3, 9]: 6.52(8)
log β (CumHhLl), species (102) ([3]; T = 25.0 ± 0.1 °C, I = 0.1 M KCl, 20% w/w DMSO/water, pH-potentiometric (FA), UV–Vis (1d)): 11.14(6)
log β (CumHhLl), species (111) [3, 10]: 13.30(4)
pM (Cu^2+), pM = −log [M] [3, 11]: 6.2
log β (FemHhLl), species (1–22) ([4]; T = 25.0 ± 0.1 °C, I = 0.1 M KCl, 20% w/w DMSO/water): 7.81(8)
log β (FemHhLl), species (101) [4, 9]: 12.15(6)
log β (FemHhLl), species (102) [4, 9]: 20.31(6)
log β (FemHhLl), species (103) [4, 10]: 26.70(8)
pM (Fe^3+), pM = −log [M] [4, 11]: 17.4
free iron in the Fe^3+/L system ([4]; pH ca. 2, species distribution): ca. 90%

Structure (SMILES): Nc1c2c(nc3ccccc13)CCCC2 [Tacrine, reference compound]
Inhibition of Aβ1–42 Aggregation (%) Self-Aβ Aggr. (Aβ1–42 peptide [7]): 22.8%
inhibition at 80 µM (Aβ1–42 peptide [5]): 21.5%

Structure (SMILES): O=C1O[C@H]([C@@H](O)CO)C(O)=C1O [Ascorbic acid]
EC50 [8]: 25 ± 1 µM

The remaining lines, values ahead:

melting point: 76 to 77 °C
EC50 [1]: 34 ± 1 µM
inhibition at 80 µM (Aβ1–42 peptide [5]; [12]): 51%
inhibition at 80 µM (Aβ1–42 peptide [6]): 68.8%
Structure (SMILES): COc1cc(/C=C/C(=O)NOCc2ccccc2C(F)(F)F)ccc1O [Compound 1c, (E)-3-(4-hydroxy-3-methoxyphenyl)-N-((2-(trifluoromethyl)benzyl)oxy)acrylamide]

melting point: 164.3 to 166.5 °C
EC50 [1]: 32 ± 3 µM
inhibition at 80 µM (Aβ1–42 peptide [5]; [12]): 28.3%
inhibition at 80 µM (Aβ1–42 peptide [6]): 77%
Structure (SMILES): COc1cc(/C=C/C(=O)NOCc2ccc(Cl)cc2Cl)ccc1O [Compound 1e, (E)-N-((2,4-dichlorobenzyl)oxy)-3-(4-hydroxy-3-methoxyphenyl)acrylamide]

melting point: 63 to 65 °C
EC50 [1]: 40 ± 2 µM
inhibition at 80 µM (Aβ1–42 peptide [5]; [12]): 52.8%
inhibition at 80 µM (Aβ1–42 peptide [6]): 69.5%
Structure (SMILES): COc1cccc(CONC(=O)/C=C/c2ccc(O)c(OC)c2)c1 [Compound 1b, (E)-3-(4-hydroxy-3-methoxyphenyl)-N-((3-methoxybenzyl)oxy)acrylamide]
